Assay results from patent US20170320939A1, “COLL2-1 PEPTIDE AND ITS NITRATED FORM AS THERAPEUTIC TARGETS FOR OSTEOARTHRITIS TREATMENT” (Université de Liège, priority 2014, published 2017).

Tests used:
TSP1 = TSP1 mRNA expression by Real Time PCR in OA synovial fibroblast cells; format: cell-based, human; settings: increasing concentrations: Coll2-1 (0.45 and 4.5 nmol) or Coll2-1NO2 (4 and 40 pmol), 24 hours
Description: 1.3 Treatment of synovial fibroblast cells. Cells were seeded into a six-well plate at the density of 2×10^5 cells/well in 2 ml of CM. When the cells reached confluence, the CM was replaced with 1% serum medium for 24 h to keep the cells quiescent. Cells were incubated for 24 hours with or without peptides Coll2-1 (^108HRGYPGLDG^116; 0.45 and 4.5 nmol) or Coll2-1NO2 (^108HRGYPGLDG-NO2^116; 4 and 40 pmol) at a range of concentrations found in the blood of osteoarthritic patients.
1.4 RNA extraction and Real Time Reverse Transcriptase-Polymerase Chain Reaction (RT PCR). Total RNA were extracted using the RNeasy Mini Kit (Qiagen, Netherlands) and were reverse transcribed with SuperScript III Reverse Transcriptase (Invitrogen, Belgium) according to the manufacturer's instructions. The cDNAs were quantified by real-time quantitative PCR using the Rotor Gene instrument (Qiagen, Venlo, Netherlands) and the SYBR Premix Ex Taq kit (Takara, Verviers, Belgium). The level of gene expression was determined by interpolation with a standard curve. To standardize mRNA levels, HPRT, a house keeping gene, was amplified as an internal control. The oligonucleotide primers sequences were as follow: HPRT forward, 5′-[…]-3′ (SEQ ID NO: 2); HPRT reverse, 5′-TGCCTGACCAAGGAAAGC-3′ (SEQ ID NO: 3); TSP-1 forward, 5′-CAGACCGCATTGGAGATAC-3′ (SEQ ID NO: 4); TSP-1 reverse, 5′-[…]-3′ (SEQ ID NO: 5); VEGF forward, 5′-TGCCTTGCTGCTCTAC-3′ (SEQ ID NO: 6); VEGF reverse, 5′-CACACAGGATGGCTTGAA-3′ (SEQ ID NO: 7); IL-6 forward, 5′-AAACAAATTCGGTACATCCTCG-3′ (SEQ ID NO: 8); IL-6 reverse, 5′-CCA GGC AAG TCT CCT CAT-3′ (SEQ ID NO: 9); IL-8 forward, 5′-GGAACCATCTCACTGTGTGTAA-3′ (SEQ ID NO: 10); IL-8 reverse, 5′-TGGAAAGGTTTGGAGTATGTCT-3′ (SEQ ID NO: 11).

female Lewis rats = assay: In-vivo study, I.A. injection compared to SCW (streptococcal cell walls) model; settings: for global histological score, right knee (injected): not significant
Description: An in-vivo study was performed to evaluate the potential immunizing effect of Coll2-1 peptide. This effect was evaluated in comparison with two validated models of rheumatoid arthritis: CIA (Collagen induced arthritis) and SCW (Streptococcal cell walls). The peptide has been injected once subcutaneous, at the base of the tail (S.C.—evaluation of systemic inflammation) or intra-articular (I.A.—evaluation of mono-articular inflammation) in female Lewis rats. Naïve controls (saline) were considered. Animals were euthanized 21 or 28 days after injection.
All animals (n=108 females; 96.0-129.7 gr) included in the study were identified by a unique chip. They were randomly distributed into 8 study groups (n=16/group except nave controls n=6/group, n=8/each time point) before induction (DO) based on their body weight (FIG. 1). • Injected controls (2 groups) • Group 1: bovin type II collagen (CIA)—S.C. (n=16) • Group 2: streptococcal cell wail (SCW)—I.A. (n=16) • Test groups (4 groups) • Group 3: Peptide dose 200 μg/100 μl—S.C. (n=16) • Group 4: Peptide dose 20 μg/100 μl—S.C. (n=16) • Group 5: Peptide dose 5 μg/50 μl—I.A. (n=16) • Group 6: Peptide dose 0.5 μg/50 μl—I.A. (n=16) • Naïve controls (2 groups) • Group 7: saline S.C. (n=6) • Group 8: saline I.A. (n=6)
Two injection ways were chosen to evaluate the potential effect of the peptide: intra-articular (I.A.) and subcutaneous (S.C.), two route classically used in the art.
Coll2-1 peptide was administered either I.A. under a 50 μL volume into the right knee or S.C. under a 100 μL volume at the base of the tail.
SCW was administered I.A. into the right knee under a 50 μL volume. Bovine type II collagen (CIA) was administered under 100 μL volume at the base of the tail.
Two doses of the Coll2-1 peptide were tested in both conditions.
It was administered I.A. at 5 and 0.5 μg under 50 μL
Coll2-1 peptide was administered once (DO).
Joint was considered arthritic when significant signs of redness and/or swelling was noted. Each paw was evaluated with a visual score (0-3) • 0: normal, no joint inflammation • 1: large joint inflammation • 2: medium joint inflammation • 3: small joint (distal) inflammation
A set of 4 values were recorded on each evaluation day. The 4 values were summed for analysis.
Right and left knees diameter were measured using a digital caliper.
Animals were euthanized 21 or 28 days after injection (D0). They were anesthetized with a subcutaneous injection of a Ketamin/Medetomidine mix and further euthanized by exsanguination.
Both entire knees from each animal were processed for histological analysis, They were decalcified in a HCl/EDTA mix (DC2, Qpath, VWR Belgium) for the appropriate time before inclusion in paraffin. Three frontal sections (5 μm) of each compartment were done 200 μm apart in the weight bearing zone using a microtome. Slides were stained according to a standard Safranin-O/Fast green protocol.
Slides were evaluated under a light microscope. Each slide was score for: • Infiltration of inflammatory cells in synovial tissue (0-3) • Inflammatory cells in the joint cavity (exudate) (0-3) • Cartilage proteoglycan depletion (0-3) • Loss of articular cartilage (0-3) • Bone erosion (0-3).
Infiltration of inflammatory cells in synovial tissue and inflammatory cells in the joint cavity were considered together (sum of the scores) as inflammatory parameters for the analysis of the detailed criteria.
Statistical analysis was performed with the appropriate test using GraphPad. • Visual score and evaluations (knee diameter measurements) were analyzed with a two way ANOVA followed, if positive, by Tukey's multiple comparison test. Graphs represented the mean of each group at each evaluated time point. • Histological scores were analyzed with a Kruskal Wallis for non-parametric values followed, if positive, by a Dunn's multiple comparison test. Graphs presented as box and whisker plots. Exact p values were provided and asterisks representation were also performed.

## HRGYPGLDG [Coll2-1]
TSP1
  TSP1 expression: decrease
Female Lewis rats; Coll2-1 0.5 μg I.A. (Gr6)
  cartilage degradation score, left knee: significant increase
  inflammatory score, left knee, versus Gr8: significant increase
  matrix proteoglycan loss score, left knee, versus Gr8: significant increase
  global histological score, right knee (injected): intermediate between Gr8 (saline) and Gr2 (SCW)
Female Lewis rats; Coll2-1 0.5 μg I.A. (Gr6), D3
  right knee diameter, difference versus Gr8 (saline): statistically different
Female Lewis rats; Coll2-1 0.5 μg I.A. (Gr6), D28
  arthritis visual score, difference versus saline (Gr8): statistically different
  cartilage degradation score, right knee, versus Gr8: significant increase
  global histological score, left knee, difference versus Gr2: not significant except for Gr6
  global histological score, left knee, difference versus Gr8: not significant except for Gr6
Female Lewis rats; Coll2-1 5 μg I.A. (Gr5)
  global histological score, left knee, differences: not significant
  global histological score, right knee (injected): intermediate between Gr8 (saline) and Gr2 (SCW)
Female Lewis rats; Coll2-1 5 μg I.A. (Gr5), D17
  arthritis visual score, difference versus Gr 6 (Coll2-1 peptide 0.5 μg): statistically different
  arthritis visual score, difference versus saline (Gr8): statistically different
  left knee diameter, difference versus Gr2 (SCW): statistically different
  left knee diameter, difference versus Gr8 (saline): statistically different
  right knee diameter, difference versus Gr8 (saline): statistically significance
Female Lewis rats; Coll2-1 5 μg I.A. (Gr5), D24
  arthritis visual score, difference versus SCW (Gr2): statistically different
Female Lewis rats; Coll2-1 5 μg versus 0.5 μg I.A., D17
  right knee diameter, difference Gr5 versus Gr6: statistically different
Female Lewis rats; Coll2-1 peptide I.A., D28, not statistically significant
  inflammatory criteria, right knee: intermediate increase
Female Lewis rats; SCW arthritis model, I.A. injection, D21 and D28
  histological score (conclusion): intermediate scores
Female Lewis rats; single I.A. injection into the right knee, D0 to D28
  arthritis visual score: induced an increase
